{"source": "patent US4591504A", "about": "“Human leucocyte pepsin-like enzyme as a therapeutic agent for treating allergic disorders and immune complex diseases” (Mochida Pharmaceutical Co., Ltd., priority 1982, dated 1986)", "key": {"[1]": {"test_system": "human breast cancer cells MX-1", "test": "Effect on the growth of cultured human breast cancer cells MX-1", "type": "cell-based", "conditions": "100 μg/ml, 48 hours, read-out: Growth inhibition rate", "procedure": "(§1) Human breast cancer cells MX-1 and mouse leukemia cells L1210 were respectively suspended at a cell concentration of 10^5 /ml in Eagle's medium containing 10% calf serum and test substances. The cells were cultured at 37° C. under 5% CO2 for 48 hours. Then the number of viable cells was counted after staining with Tripan Blue. [formula]"}, "[2]": {"test_system": "mouse leukemia cells L1210", "test": "Effect on the growth of cultured mouse leukemia cells L1210", "type": "cell-based", "conditions": "100 μg/ml, 48 hours, read-out: Growth inhibition rate", "procedure": "as §1"}, "leukemia cells P388": {"test_system": "leukemia cells P388", "test": "Effect on leukemia cells P388 bearing mice", "type": "in vivo, mouse (BDF1)", "conditions": "0.5 mg/kg; control 100 ± 5", "procedure": "10^5 of leukemia cells P388 were transplanted intraperitoneally to a group of 5 BDF1 male mice. The human leucocyte pepsin-like enzyme was injected intravenously into the mice twice a day beginning on the next day until the animals died. The average life span was calculated and expressed as a percentage of control. [formula]"}}, "data": [{"compound": "CO[C@@]12[C@H](COC(N)=O)C3=C(C(=O)C(C)=C(N)C3=O)N1C[C@@H]1N[C@@H]12", "note": "[Mitomycin C]", "values": [{"measurement": "inhibition at 100 µg/mL", "setting": "[1]", "value": 48, "unit": "%"}, {"measurement": "inhibition at 100 µg/mL", "setting": "[2]", "value": 61, "unit": "%"}, {"measurement": "Average life span (percentage of control)", "setting": "leukemia cells P388", "value": "135 ± 16", "unit": "%"}]}]}
